How the values were obtained:
[1] = tested on: DU-145 human prostate tumor cells; assay: Flow cytometry (propidium iodide) apoptosis, sub-G0/G1 peak; type: cell-based; conditions: DU-145 cells, 50 μM, 24 h
Stability in solution = type: physicochemical
Text: The prolonged stability is an advantage over taurolidine.

[2] = Growth inhibition of a panel of cell lines by taurolidine; type: cell-based; conditions: range over all cell lines evaluated; read-out: IC50s, growth inhibition
[3] = tested on: PA1 human ovarian tumor cells; assay: Tumor cell growth inhibition, PA1 cells (cell counting); type: cell-based; conditions: PA-1, 5-100 μM, 3 d (72 h) exposure, electronic cell counting, mean ± SE, read-out: IC50 (concentration required to inhibit cell number by 50%)

O=S1(=O)CCN(CN2CCS(=O)(=O)NC2)CN1 [Taurolidine, Bis-(1,1-dioxoperhydro-1,2,4-thiadiazinyl-4)methane]
% apoptosis (sub-G0/G1 peak area) [1]: 12.27%
stability in solution (Stability in solution): very unstable in solution and spontaneously decomposes
IC50 [2]: 9.6 to 45 µM
IC50 [3]: 11.4 ± 1.8 µM

Source: US6812251B2, “Taurine compounds” (priority 2001, dated 2004)
